Results from a melting point compilation (Tetko et al.; mined from patent text by program, amines drawn as free bases though some values may be those of a salt).

| SMILES | melting point |
| --- | --- |
| Cc1ccc(-n2c(=O)[nH]c3ccccc3c2=O)cc1 | 267 °C |
| CN(Cc1cnn(C)c1)c1ccc(Br)cc1C=O | 80 to 81 °C |
| Nc1c(-c2cc(Cl)ccc2O)c2cc(I)ccc2[nH]c1=O | 160 to 162 °C |
| Cc1cc2nc(C3(c4ccc(S(N)(=O)=O)cc4)C=C(C(F)(F)F)NN3)sc2cc1F (stereo unspecified) | 224 to 225 °C |
| Cn1nc(-c2cnc3[nH]cc(C(=O)NC4CCOC4)c3n2)c2ccc(Cl)cc21 (stereo unspecified) | 345 to 347 °C |
| COc1cccc(OC)c1-c1ccc(C[C@H](NC(=O)c2c(Cl)ccc(Br)c2Cl)C(=O)O)cc1 | 235 °C |
| Clc1ccc(N2CCN(CCCc3c4c(nn3-c3ccccc3)CCCC4)CC2)cc1 | 127 to 129 °C |
| COc1ccc(-c2nc(CC(=O)Cc3ccc(OC(C)=O)c(OC(C)=O)c3)cs2)cc1OC | 128 °C |
| Cc1cccc2nc(NC(=O)c3ccc(C4(C(=O)O)CCC4)cc3)cn12 | 272 °C |
| COc1ccc(-c2ccc(-c3ccccc3Cl)n2Cc2cccc(N)n2)cc1 | 147 to 148 °C |
| CC(=O)Nc1nc(CCc2ccc(NC(=N)N)cc2)c(Cc2ccc(S(C)(=O)=O)cc2)s1 | 228 to 230 °C |
| CCOC(=O)CCc1ccc(CCNS(=O)(=O)c2ccc(Cl)cc2)cc1 | 61 to 62 °C |
| O=[N+]([O-])c1ccc2sc(-c3cccnc3)nc2c1 | 196 to 198 °C |
| O=C(c1cccnn1)c1ccccc1Cl | 105 to 107 °C |
| O=C(Nc1cccc(C(F)(F)F)c1)Nc1nccnc1C(=O)O | > 300 °C |
| N#CCc1ccc(NC(=O)CNc2ccccc2F)cc1 | 111 to 113 °C |
| CC1(C)NC(=O)N(c2ccc(Cl)c(C(F)(F)F)c2)C1=O | 152 to 153 °C |
| CN(O)C(=O)c1ccc(OCCOc2ccccc2)cc1 | 134 to 136 °C |
| CCOC(=O)CC[C@H](NC(=O)c1ccc2c(c1)CCN2Cc1cnc2nc(N)nc(N)c2n1)C(=O)OCC | 168 to 170 °C |
| CCOC(=O)CCCC(=O)CNC(=O)c1csc(NC(=O)NCc2ccccn2)n1 | 110 °C |
| CN1C(=O)C2(CCN(Cc3ccccc3)CC2)N=C(c2ccccc2)c2cc(Cl)ccc21 | 169 to 170 °C |
| Nc1c2c(nc3ccccc13)CCCC2OCCBr (stereo unspecified) | 164 °C |
| COc1cc(CCC[C@H]2OC(=O)NC2=O)ccc1OCc1nc(-c2ccco2)oc1C | 122 to 123 °C |
| CCN(CC)CCNC(=O)c1cc(Cl)c(N)cc1OCCN | 97 to 99 °C |
| O=C(O)CNc1ccccc1F | 126 to 127 °C |
| C#CCOc1cc(NN=C2CCCCN2C(=O)OC)c(Cl)cc1Cl | 137 to 138 °C |

| SMILES | melting point |
| --- | --- |
| COc1cc2c(cc1OC)CN(c1cc(N)c3cc(OC)c(OC)cc3n1)CC2 | 226 to 227 °C |
| CCOC(=O)c1ccc2c(SC(=O)N3CCSCC3)cccn2c1=O | 146 to 148 °C |
| CC(C)(C)c1nc2cc(N3CCNCC3)c([N+](=O)[O-])cc2s1 | 144 to 146 °C |
| CCOc1cc(-c2cc(C(F)(F)F)n3ncc(C(=O)Nc4cccc(S(C)(=O)=O)c4)c3n2)ccc1C(F)(F)F | 215 °C |
| CC(C)C[C@H](NC(=O)[C@H](Cc1ccccc1)NC(=O)C1CCCCC1S)C(=O)O (stereo partly specified) | 180 to 183 °C |
| CCCC1=C(C(=O)OCC)C(c2ccccc2C#N)c2c[nH]nc2N1 (stereo unspecified) | 211 °C |
| COCC(C)OC(=O)C(=O)Nc1nc(-c2ccccc2)cs1 (stereo unspecified) | 152 to 155 °C |
| Cc1ccc2c(Sc3ccc(Cl)cc3)c(C(=O)O)[nH]c2c1 | 228 to 229 °C |
| O=C1Oc2ccc(Cl)cc2C2=c3ccccc3=NCC12 (stereo unspecified) | > 350 °C |
| Cc1nn(C)c(C2=NC(C)C(C)N2)c1N (stereo unspecified) | 250 °C |
| CCOC(=O)N1CCC(NC(=O)c2ccc(Cl)c(Cl)c2)C12CCCCC2 (stereo unspecified) | 153 to 155 °C |
| CCOC(=O)c1cc(=O)nc2n1-c1ccc(C)cc1OC2 | 136 to 137 °C |
| COCCc1nc2c(N)nc3cc(Br)ccc3c2s1 | 172 to 175 °C |
| Cc1nccn1-c1ccc(N2C[C@H](CNc3ccon3)OC2=O)cc1F | 106 to 107 °C |
| CCCCCCCCCCc1c(C)nc2ccccn2c1=O | 66 to 67.5 °C |
| COc1cccc(-c2c[nH]c3ncnc(N)c23)c1 | 188 to 190 °C |
| CC(C)OC(CC#N)=NC#N | 66.5 °C |
| COc1ccc(CN(C)c2ncnc3c(N4CCOCC4)nc(N4CCC(N(C)C)CC4)nc23)cc1 | 109 to 110 °C |
| Cc1csc(C)c1CO | 80 to 81 °C |
| O=C(O)Cc1cc(C(=O)Cc2c(F)cccc2Cl)ccc1O | 240 °C |
| Cc1c(F)ncn1CC(=O)c1ccccc1 | 84.5 °C |
| Cc1cc2c(cc1-c1ccncc1)C(=O)C(=O)N2 | 292 to 294 °C |
| CON(C)C(=O)Nc1ccc(Oc2ccc3ccccc3c2)c(C(F)(F)F)c1 | 129 to 130 °C |
| CCCN(CCC)S(=O)(=O)c1cc(OC)c(OC)cc1C=Cc1nc2c(c(=O)n(CCC)c(=O)n2CCC)n1C | 208 °C |
| CCOc1ccc2c(OC(=O)C(F)(F)F)c3cc4ccccc4cc3c(OC(=O)C(F)(F)F)c2c1 | 165 to 170 °C |
